According to ChEMBL document CHEMBL1156454, “Essential requirement for sphingosine kinase 2 in a sphingolipid apoptosis pathway activated by FTY720 analogues” (J Biol Chem, 2007):
The source made the active and inactive calls. The calls are words filed in the database; no cut-off is given here.

Legend:
Jurkat [1] = test: Induction of apoptosis in human Jurkat cells assessed as cell death after 18 hrs; type: functional, cell-based
Jurkat [2] = test: Induction of apoptosis in human Jurkat cells assessed as PARP cleavage at 5 uM after 16 hrs; type: functional, cell-based
Lymphocyte [3] = test: Induction of apoptosis in MRL/MpJ-lpr/lpr mouse spleen lymphocytes assessed as increase in apoptotic cells in spleen at 1 mg/kg, ip by annexin V method; type: functional, organism-based; parameters: dose 1 mg/kg
Splenocyte [4] = test: Induction of apoptosis in mouse primary splenocytes assessed as cell death after 18 hrs; type: functional, cell-based
Jurkat [5] = test: Inhibition of wild type human Jurkat cells after 18 hrs by MTT assay; type: functional, cell-based
Jurkat [6] = test: Inhibition of human 2-amino-4-(4-heptyloxyphenyl)-2-methylbutanol-resistant human Jurkat SBR3 mutant cells proliferation after 18 hrs by MTT assay; type: functional, cell-based
Jurkat [7] = test: Resistance index, ratio of IC50 for 2-amino-4-(4-heptyloxyphenyl)-2-methylbutanol-resistant human Jurkat SBR3 mutant cells to IC50 for human wild type Jurkat cells; type: functional
Jurkat [8] = test: Resistance index, ratio of IC50 for 2-amino-4-(4-heptyloxyphenyl)-2-methylbutanol-resistant human Jurkat SBR2 mutant cells to IC50 for human wild type Jurkat cells; type: functional
Jurkat [9] = test: Inhibition of 2-amino-4-(4-heptyloxyphenyl)-2-methylbutanol-resistant human Jurkat SBR1 mutant cells proliferation after 18 hrs by MTT assay; type: functional, cell-based
Jurkat [10] = test: Resistance index, ratio of IC50 for 2-amino-4-(4-heptyloxyphenyl)-2-methylbutanol-resistant human Jurkat SBR1 mutant cells to IC50 for human wild type Jurkat cells; type: functional
Jurkat [11] = test: Inhibition of 2-amino-4-(4-heptyloxyphenyl)-2-methylbutanol-resistant human Jurkat SBR2 mutant cells proliferation after 18 hrs by MTT assay; type: functional, cell-based
Jurkat [12] = test: Reversal of inhibition of mitochondrial function in human Jurkat cells after 18 hrs in presence of Z-VAD-fmk; type: functional, cell-based
[13] = Cell viability of Sphk2-knock out mouse embryonic fibroblasts assessed as resistant cells after 18 hrs by propidium iodide exclusion assay; type: functional, cell-based; details: Fibroblast
[14] = biological target: Sphingosine kinase 1 (Homo sapiens) (UniProt Q9NYA1); test: Inhibition of Sphk1 expressed in HEK293 cells; type: cell-based
Jurkat [15] = test: Induction of apoptosis in human Jurkat cells assessed as increase in cytosolic calcium levels after 8 hrs; type: functional, cell-based
Jurkat [16] = test: Induction of apoptosis in human Jurkat cells assessed as activation of effector capsases after 18 hrs; type: functional, cell-based
Splenocyte [17] = test: Induction of apoptosis in Sphk1-knock out mouse primary splenocytes assessed as resistant cells after 18 hrs by propidium iodide exclusion assay; type: functional, cell-based
Jurkat [18] = test: Induction of apoptosis in human Jurkat SBR1 mutant cells assessed as activation of effector capsases after 18 hrs; type: functional, cell-based
[19] = Drug level in MRL/Mpj-lpr/lpr mouse thymus assessed as (R)-2-amino-4-(4-(heptyloxy)phenyl)-2-methylbutyl dihydrogen phosphate levels per mg of tissue at 1 mg/kg, ip after 1 hr; type: ADME, organism-based; parameters: dose 1 mg/kg, route intraperitoneal; details: in vivo
Jurkat [20] = test: Induction of apoptosis in human Jurkat SBR1 cells expressing Sphk1 after 18 hrs by MTT assay; type: functional, cell-based
Lymphocyte [21] = test: Induction of apoptosis in MRL/MpJ-lpr/lpr mouse lymph node lymphocytes assessed as increase in apoptotic cells in lymph nodes at 1 mg/kg, ip by annexin V method; type: functional, organism-based; parameters: dose 1 mg/kg
Jurkat [22] = test: Induction of apoptosis in human Jurkat SBR1 cells expressing Sphk2 after 18 hrs by MTT assay; type: functional, cell-based
Splenocyte [23] = test: Induction of apoptosis in Sphk2-knock out mouse primary splenocytes assessed as resistant cells after 18 hrs by propidium iodide exclusion assay; type: functional, cell-based
Lymphocyte [24] = test: Induction of apoptosis in MRL/MpJ-lpr/lpr mouse thymus lymphocytes assessed as increase in apoptotic cells in thymus at 1 mg/kg, ip by annexin V method; type: functional, organism-based; parameters: dose 1 mg/kg
Spleen = test: Drug level in MRL/MpJ-lpr/lpr mouse spleen assessed as (R)-2-amino-4-(4-(heptyloxy)phenyl)-2-methylbutyl dihydrogen phosphate levels per mg of tissue at 1 mg/kg, ip after 1 hr; type: ADME, organism-based; parameters: dose 1 mg/kg, route intraperitoneal; details: in vivo

Sequence of Sphingosine kinase 1 (Homo sapiens) (Q9NYA1 whole entry): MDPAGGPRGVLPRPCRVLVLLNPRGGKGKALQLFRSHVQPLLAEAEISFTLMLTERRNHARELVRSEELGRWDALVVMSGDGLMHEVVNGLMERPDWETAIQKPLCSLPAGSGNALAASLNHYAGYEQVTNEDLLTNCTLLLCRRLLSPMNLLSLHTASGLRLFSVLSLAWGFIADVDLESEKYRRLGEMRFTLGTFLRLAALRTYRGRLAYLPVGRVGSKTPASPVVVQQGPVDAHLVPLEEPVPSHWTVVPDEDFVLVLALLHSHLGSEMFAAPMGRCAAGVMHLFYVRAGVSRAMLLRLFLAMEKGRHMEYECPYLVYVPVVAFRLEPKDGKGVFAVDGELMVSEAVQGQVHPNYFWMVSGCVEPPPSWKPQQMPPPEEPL

SMILES | IC50 (Jurkat [5]) [nM] | IC50 (Jurkat [6]) [µM] | IC50 (Jurkat [9]) [µM] | IC50 (Jurkat [11]) [µM] | Ratio IC50 (Jurkat [7]) | Ratio IC50 (Jurkat [8]) | Ratio IC50 (Jurkat [10]) | other results
CCCCCCCOc1ccc(CC[C@](C)(N)CO)cc1 | – | – | – | – | – | – | – | Activity (Jurkat [1]): inactive; Activity (Jurkat [2]): inactive; Activity (Lymphocyte [3]): Active; Activity (Splenocyte [4]): inactive
CCCCCCCCCCCCCC[C@@H](O)[C@@H](O)[C@@H](N)CO (single isomer, unassigned) [PHYTOSPHINGOSINE] | 3750 | 4.12 | 6.57 | 5.29 | 1.1 | 1.4 | 1.8 | –
COc1cc([C@@H]2c3cc4c(cc3[C@@H](O[C@@H]3O[C@@H]5CO[C@@H](C)O[C@H]5[C@H](O)[C@H]3O)[C@H]3COC(=O)[C@H]23)OCO4)cc(OC)c1O | – | – | – | – | – | – | – | Activity (Jurkat [6]): Active; Activity (Jurkat [9]): Active; Activity (Jurkat [11]): Active
CCCCCCCCc1ccc(CCC(N)(CO)CO)cc1 | – | – | – | – | – | – | – | Activity (Jurkat [12]): Active
CCCCCCCCCCCCC/C=C/[C@@H](O)[C@@H](N)CO [SPHINGOSINE] | 2010 | 3.38 | 3.48 | 2.88 | 1.7 | 1.4 | 1.7 | Activity [13]: inactive
CCCCCCCOc1ccc(CC[C@@](C)(N)COP(=O)(O)O)cc1 | – | – | – | – | – | – | – | Activity (Jurkat [5]): inactive; Activity [14]: inactive; Activity (Splenocyte [4]): inactive

The next lines start with results.

IC50 (Jurkat [5]) [nM] | IC50 (Jurkat [6]) [µM] | IC50 (Jurkat [9]) [µM] | IC50 (Jurkat [11]) [µM] | SMILES | Ratio IC50 (Jurkat [7]) | Ratio IC50 (Jurkat [8]) | Ratio IC50 (Jurkat [10]) | other results
3530 | 6.31 | 4.9 | 3.68 | CCCCCCCCCCCCCCC[C@@H](O)[C@@H](N)CO [DIHYDROSPINGOSINE] | 1.8 | 1.3 | 1.4 | –
2320 | 7.12 | 8.72 | 7.72 | CCCCCCCOc1ccc(CC[C@@](C)(N)CO)cc1 | 3.1 | 3.3 | 3.8 | Activity (Jurkat [15]): Active; Activity [13]: Active; Activity (Jurkat [16]): Active; Activity (Splenocyte [17]): inactive; Activity (Jurkat [18]): inactive; Activity (Jurkat [2]): Active; Activity [19]: < 0.2 pmol/mg; Activity (Jurkat [20]): Active; Activity (Lymphocyte [3]): Active; Activity (Lymphocyte [21]): Active; Activity (Jurkat [22]): Active; Activity (Splenocyte [23]): Active; Activity (Lymphocyte [24]): inactive; Activity (Spleen): < 0.2 pmol/mg
